Results reported in US5352665A, “Method of treating disease caused by the infection of virus” (Mitsui Toatsu Chemicals, Incorporated, priority 1987, dated 1994).
Square brackets hold non-standard residues; d marks the D form. Peptide text beside a SMILES is read from it. pGlu = O=C1CC[C@@H](C(=O)O)N1

Legend:
REO virus type II = experiment: Jerne plaque assay (anti-SRBC hemolysis plaques) in new-born NC mice infected with REO virus; assay type: in vivo, mouse; details: for PFC/10^6 spleen cells (number of hemolysis plaques): measured 4 days later; for therapeutic effect on immune inhibition (in words): administered together with SRBC to infected NC mice, LPS 5 μg/mouse, MDP 20 μg/mouse
Method: Two weeks after the infection of 10^5 PFU REO virus, sheep red blood cells (referred to hereinafter simply as SRBC) was intraperitoneally administered and 4 days after the administration, the number of hemolysis plaques was measured by way of Jerne plaque assay as a production amount of antibody-forming cells against SRBC. The number of hemolysis plaques was 15±2 per 10^6 spleen cells in a group not infected with REO virus, while that was 2.8±1.6 in an infected group, thus showing a remarkable immunity inhibitory state. In compliance with this, atrophy of thymus and decrease in the number of thymic cortex lymphocytes were observed.
On the other hand, the effective ingredient of this invention dissolved in physiological saline was administered in an amount of 10 μg/mouse simultaneously with SRBC to mice, and 4 days after the administration, the number of hemolysis plaques was measured whereupon the number was 22±5. […] In a group to which muramyl dipeptide was administered in an amount of 20 μg/mouse together with Freund incomplete adjuvant, the number of hemolysis plaques was 11±2.
Next, recovery of the immune function by immunity-enhancing substance was examined, using new-born mice infected with REO virus type II. Two weeks after the infection of the mice with the virus, sheep red blood cells were administered to the mice, and 4 days after the administration, Jerne plaque assay was carried out to measure the number of hemolysis plaques. The number was 15±2 in a group of the mice not infected and was 2.8±1.6 in a group of the infected mice. […] This recovery of the function of immune inhibition is tabulated as follows:
Mice infected with virus was immunized at the same time with SRBC and an immunostimulant, and 4 days after the immunization, the number of hemolysis plaques was measured by Jerne plaque assay.
After mice being infected with REO virus, 10 μg 1 μg or 0.1 μg of FTS was administered to the mice. After 18 days, inhibition of immunity and recovery of its function were observed by way of Jerne plaque assay.
Virus: REO virus type II, innoculation 1×10^5 PFU/mouse

[1] = Toxicity test, repeated subcutaneous administration to rats; assay type: in vivo, rat; details: 30 mg/kg subcutaneously for consecutive 21 days
Excerpt: (§1) Thus, the medicament of the present invention is a safe medicament of extremely low toxicity and can be administered for a long period of time.

[2] = Toxicity test, repeated subcutaneous administration to mice; assay type: in vivo, mouse
Excerpt: as §1

| Molecule | PFC/10^6 spleen cells (number of hemolysis plaques) (REO virus type II; MDP 20 μg/mouse with Freund incomplete adjuvant and SRBC 2 weeks after 10^5 PFU REO virus) | PFC/10^6 spleen cells (number of hemolysis plaques) (REO virus type II; MDP 20 μg/mouse with Freund incomplete adjuvant and SRBC 2 weeks after 10^5 PFU REO virus, listed as muramyl dipeptide) | therapeutic effect on immune inhibition (in words) (REO virus type II) | abnormal symptom in external behavior observation, biochemical diagnosis of sera and pathological anatomy ([1]; rats) | toxicity ([1]; wister rats of 5 weeks old) | toxicity ([2]; 50 mg/kg and 100 mg/kg subcutaneously for consecutive 14 days, ddy male mice of 5 weeks old) | abnormal symptom by external check ([2]; 100 mg/kg subcutaneously every day for consecutive 14 days, mice) | PFC/10^6 spleen cells (number of hemolysis plaques) (REO virus type II; LPS 5 μg/mouse with SRBC 2 weeks after 10^5 PFU REO virus) | PFC/10^6 spleen cells (number of hemolysis plaques) (REO virus type II; LPS 5 μg/mouse with SRBC 2 weeks after 10^5 PFU REO virus, listed as lipopolysaccharide (LPS)) |
| --- | --- | --- | --- | --- | --- | --- | --- | --- | --- |
| CC(=O)N[C@H]1C(O)O[C@H](CO)[C@@H](O)[C@@H]1O[C@H](C)C(=O)N[C@@H](C)C(=O)N[C@H](CCC(=O)O)C(N)=O (mixture of isomers) [MDP, muramyl dipeptide] | 11 ± 2 PFC/10^6 spleen cells | 11±2 PFC/10^6 spleen cells | showing a therapeutic effect |  |  |  |  |  |  |
| C[C@H](NC(=O)[C@@H]1CCC(=O)N1)C(=O)N[C@@H](CCCCN)C(=O)N[C@@H](CO)C(=O)N[C@@H](CCC(N)=O)C(=O)NCC(=O)NCC(=O)N[C@@H](CO)C(=O)N[C@@H](CC(N)=O)C(=O)O [FTS, pGlu-Ala-Lys-Ser-Gln-Gly-Gly-Ser-Asn] ([pGlu]AKSQGGSN-OH) |  |  |  | no abnormal symptom was found | No toxicity was observed | No toxicity was observed | no abnormal symptom was found |  |  |
| lipopolysaccharide [LPS] |  |  | no therapeutic effect |  |  |  |  | 0.3 ± 0.4 PFC/10^6 spleen cells | 0.3±0.4 PFC/10^6 spleen cells |
